Earlier results on one compound are cited in patent US11752185B2, “Powderized cannabis oil” (Hemp Synergistics, priority 2020, dated 2023).

The conditions of the series: clinical studies; EPIDIOLEX context: seizures associated with Lennox-Gastaut syndrome or Dravet syndrome.

Take `C=C(C)[C@@H]1CCC(C)=C[C@H]1c1c(O)cc(CCCCC)cc1O` [CBD, cannabidiol]: the therapeutic dose is 10 mg/kg/day.
